# Records with an inconclusive call do not appear.
# Tested on: M. tuberculosis H37Rv growth inhibition, 7H9 media
# Test: M. tuberculosis growth inhibition, HTS (AID 449762);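 note: bacterial growth assessed after seven days of incubation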
# Conditions: for IC90: measured here: IC90 growth inhibition
SMILES,IC50 [µM],IC90 [µM]
NC(=O)N=Nc1c2[nH]c3ccccc3nc-2c2ccccc12,4.36,7.08
C/C(O)=C\c1nc2ccccc2oc1=O,0.77,0.86
CCNCC(=O)N1c2ccccc2CCc2ccc(NC(=O)OC(C)C)cc21,55.9,71.3
CCCC1CC(C)(c2csc(Nc3ccc(OCC)cc3)n2)OC1=O (stereo unspecified),33.5,46.5
CN(Cc1ccco1)c1ncnc2ccc(-c3ccc4c(ccn4C)c3)cc12,16.9,44.9
O=C1Nc2ccc(Br)cc2C12NNc1ccccc1O2 (stereo unspecified),23.3,43.6
COc1ccc(Nc2nc(N3CCCCC3)nc3ccccc23)c(OC)c1,19.1,26.5
c1ccc2c(C3=NNC(=NC4CCCCC4)SC3)c[nH]c2c1,42.7,47.2
N/C(=N\OC(=O)Nc1ccc(Cl)c(Cl)c1)c1ncc(C(F)(F)F)cc1Cl,41.9,45.8
CCCc1cc2c(cc1NC(=O)c1ccccc1Cl)OCO2,1.98,> 100
Cc1cc2nc(/N=C(\N)NC(=O)C(C)C)nc(C)c2cc1C,4.67,61.2
CC(C)(C)c1ccc(-c2nc3[nH]c(=O)cc(NC(=O)c4ccco4)n3n2)cc1,74.4,> 100
Cc1nc(SCC(=O)NC2CCCCC2)[nH]c(=O)c1C,< 0.2,< 0.2
O=C(CCN1C(=O)/C(=C/c2ccccc2Cl)SC1=S)N1CCCC1,9.76,> 25
COC(=O)COc1ccc(-c2ccccc2)cc1C=O,11,19
N#CCCN(C(=O)COC(=O)CCc1c[nH]c2ccccc12)c1ccc(F)cc1,30.7,70.8
CCOc1cccc(C=Nc2cc(C)cc(C)c2O)c1O,13.6,29.2
CCOC(=O)COc1cc([N+](=O)[O-])cc2cccnc12,15.2,34.6
O=C1C(=O)N(c2ccccc2)c2ccccc21,8.23,17.7
S=C(NCc1ccc(Cl)cc1)NC12CC3CC(CC(C3)C1)C2,0.7,11.6
O=c1cc(/C=C/c2ccccc2)oc2ccccc12,36.4,> 100
O=C(CSC(=S)N1CCCC1)c1cc(Br)cc(Br)c1O,23.9,36.6
Cc1ccc(CNC(=O)c2sc3nc4c(c(C(F)(F)F)c3c2N)CCC4)cc1,35.7,50.9

SMILES,IC50 [µM],IC90 [µM]
CC1(CCc2ccccc2)NC(=S)N(c2ccc(Cl)cc2)N1 (stereo unspecified),,> 100
COc1ccc(C2(c3ccc(OC)cc3)NC(=O)N(CC(=O)Nc3ccc(OC(F)F)cc3)C2=O)cc1,29.9,79.9
Cc1ccc(Cn2nnnc2CN2CCC(c3nc4ccc(Cl)cc4[nH]3)CC2)cc1,26,35.9
CN1C(=S)SC(N(O)C(=O)Nc2ccc(Cl)c(Cl)c2)C1(C)C (stereo unspecified),22.8,25.6
CCOc1cccc2cc(C(=O)Nc3nccs3)c(=O)oc12,0.34,29.6
Cc1cc(C)n2[nH]c(=O)c(N=Nc3cccc(C(F)(F)F)c3)c2n1,86.5,> 100
O=c1oc2ccccc2c(Nc2ccccc2O)c1[N+](=O)[O-],7.1,14
CCCCN1C(=O)C2(NNc3ccccc3O2)c2ccccc21 (stereo unspecified),57.5,> 100
CC(C)CNc1nnnc2c1sc1nc(N3CCOCC3)c3c(c12)CC(C)(C)SC3,74,> 100
Cc1ccc(OC(=O)c2oc3ccc(F)cc3c2C)c(C)c1,6.82,18.6
O=C(NCC(c1cccs1)N1CCOCC1)c1cc([N+](=O)[O-])cc([N+](=O)[O-])c1 (stereo unspecified),0.72,0.81
O=C(/C=C/Sc1ncn[nH]1)c1ccc(Cl)cc1,16.8,43.8
CCc1ccc(CCOc2ccc(CC3SC(=O)NC3=O)cc2)nc1 (stereo unspecified),23.3,> 25
COc1ccc(-n2c(-c3ccc(Cl)cc3)c[n+]3c2CCc2ccccc2-3)cc1,16.4,24.2
Oc1ccccc1N=Cc1ccc[nH]1,3.83,7.96
Oc1[nH]c2ccccc2c1N=NC(=S)N1CCOCC1,12.3,13.9
Cn1cnc(Sc2ncnc3nc[nH]c23)c1[N+](=O)[O-],9.85,17
Cc1ccc(C(=O)N2N=C(c3ccc(NS(C)(=O)=O)cc3)CC2c2cccs2)cc1 (stereo unspecified),12.4,21.2
C/C(CC(=O)Nc1ccc2c(c1)OCCO2)=N\NC(=O)c1ccccc1F,6.94,> 100
CCOC(=O)c1ccc(NC(=O)CCc2nc(-c3ccc(Cl)cc3)no2)cc1,27.4,> 100
COc1ccccc1NC(=O)c1ccc(NC(=O)CSc2nnnn2C)cc1,2.89,13.8
Cc1ccc(Cl)cc1N1CCN(Cc2nc3ccsc3c(=O)[nH]2)CC1,83.1,> 100
CCOC(=O)Oc1c(OC)cc(C(=O)O[C@@H]2C[C@@H]3CN4CCc5c([nH]c6cc(OC)ccc56)[C@H]4C[C@@H]3[C@H](C(=O)OC)[C@H]2OC)cc1OC,19.7,27.3

SMILES,IC50 [µM],IC90 [µM]
COC(=O)[C@@H](NC(=O)c1cc(COc2cncc(Cl)c2)on1)c1ccccc1,1.19,3.97
CCOC(=O)C1=C(C)Nc2nc(SCC(=O)OC)nn2C1c1cc(F)cc(F)c1 (stereo unspecified),5.06,7.95
CCOC(=O)Cn1c(C)c(Br)c(=O)c2cccc(C)c21,7.53,22.7
Cc1cccc2c1N(CCCOc1ccc(C(C)(C)C)cc1)C(=O)C2=O,17.3,20.7
O=C(NNC1CC(=O)N(c2ccc(Br)cc2)C1=O)c1ccccn1 (stereo unspecified),5.9,13.6
CCNc1nc(NCC)nc(N/N=C/c2ccc([N+](=O)[O-])o2)n1,0.99,1.67
CCCCn1c(O)c(/C=C2/C=CC=N2)c(=O)[nH]c1=O,6.55,17.1
O=c1[nH]c(CN2CC=C(c3ccccc3)CC2)nc2cc(C(F)(F)F)ccc12,69.4,86
O=S(=O)(c1ccc(Cl)cc1)c1snnc1-c1ccccc1,6.27,51.8
CC(=O)N(Cc1ccc(F)cc1)C1=C(NCCc2ccccc2)C(=O)c2ccccc2C1=O,5.83,6.59
Cc1ccc(C(=O)ONc2ccc(N=O)cc2)cc1,23.2,43.1
CCOc1cc(/C=C\[N+](=O)[O-])ccc1OCC(=O)Nc1ccccc1C,6.93,33.8
CC(C)CCC[C@@H](C)[C@H]1CC[C@H]2[C@@H]3C(=O)C=C4C[C@@H](O)CC[C@]4(C)[C@H]3CC[C@]12C,43.3,47.8
Cc1ccnc(N2CCC(C(=O)Nc3cccc(C(F)(F)F)c3)CC2)n1,47.5,> 100
COC(=O)C1C2c3ccccc3OC1(C)N=c1s/c(=C/c3cnn(C)c3C)c(=O)n12 (stereo unspecified),0.97,13.1
Cc1ccc(N/C=C2\C(=O)C3(C)CCC2C3(C)C)cc1C (stereo unspecified),,> 100
C[C@@H]1CN([C@H](C)CO)C(=O)c2cc(NC(=O)Nc3ccc(C(F)(F)F)cc3)ccc2O[C@H]1CN(C)S(=O)(=O)c1cccs1,22.6,25.9
C/C(=N\Nc1ccc([N+](=O)[O-])cc1)c1cccc(N)c1,62.9,88.3
Cc1ccc(S(=O)(=O)NCc2ccc(C(=O)NCCCN3CCC(Cc4ccccc4)CC3)cc2)cc1,79.8,> 100
CSC1=NC(C)(C)C=C(/C=C/c2ccc(Cl)cc2)N1,21.5,44.5
C=CCNC(=S)N/N=C(\C)c1ccccn1,7.07,17.7
Cc1nc2sccn2c(=O)c1CCN1CCC(=C(c2ccccc2)c2ccc(F)cc2)CC1,44.7,49.9
CC(C)CCNC(=O)C(c1ccc(O)cc1)N(C(=O)C1COc2ccccc2O1)c1cccc(O)c1 (stereo unspecified),71,> 100

SMILES,IC50 [µM],IC90 [µM]
Cc1ccc(CN2CCN(/N=C/c3ccc(Cl)c([N+](=O)[O-])c3)CC2)cc1,22.7,36.5
CC1=NN(c2ccccc2)C(=O)C1C(=O)c1ccccc1 (stereo unspecified),25.7,53
CC(c1nc2ccccc2c(=O)[nH]1)N(C)CCOc1ccc(Cl)cc1 (stereo unspecified),40.4,51.7
CCCCn1c(NCc2ccc3c(c2)OCO3)nc2ccccc21,19,31.1
CC(C)(C)C(=O)N1CCN(c2ccc(NC(=O)c3ccc([N+](=O)[O-])o3)cc2)CC1,< 0.2,< 0.2
O=C(CCl)Nc1cn(-c2ccccc2)nc1-c1ccccc1,< 0.2,1.15
CC(C)OC(=O)CSc1nc2ccccc2s1,12.4,33.6
COc1ccc(-c2cc(C3CCN(C(=O)OC(C)(C)C)CC3)[nH]n2)cc1,17,30.6
N#Cc1ccc(OCC(O)CN2CCN(c3ncc(C(F)(F)F)cc3Cl)CC2)cc1 (stereo unspecified),15.2,24
COc1ccc(C(CC(=O)c2ccccc2)S(=O)(=O)c2ccc(C)cc2)cc1 (stereo unspecified),20.2,29.4
Cc1ccccc1C1C(C#N)=C2N=C(N)c3c(sc4c3CCCCC4)N2C2=C1C(=O)CC(C)(C)C2 (stereo unspecified),,> 100
O=C(CCl)NCc1cc(-c2ccc(Cl)cc2)no1,< 0.2,1.33
O=C(NNc1nc(-c2ccccc2)cs1)c1ccccc1,7.6,> 100
COc1ccc(-c2cc3n(n2)CCc2nc4ccccc4n2-3)cc1,1.06,5.92
COc1cccc(/C=N/Nc2nc(Nc3ccccc3)nc(-n3nc(C)cc3C)n2)c1O,< 0.2,< 0.2
Nc1ccc2c(c1)oc1ccccc12,,> 100
CCOC(=O)c1csc(-c2snnc2C)n1,21.4,52
Cc1c(Cl)c([N+](=O)[O-])nn1Cc1ccc(C(=O)N/N=C\c2cccc(Br)c2)o1,66.7,> 100
CCOC(=O)c1ccc(NC(=S)NCCc2ccc(F)cc2)cc1,42.4,> 100
Cc1cc(C)n(-c2nc(NCCN(C)C)c3c4c(sc3n2)CCCC4)n1,14.6,18.6
CCOc1cc(C(=O)OCc2ccc(C(=O)OC)o2)cc(Br)c1OC,61.7,> 100
